{
  "source": "paper PMC3424241",
  "about": "“The Octadecaneuropeptide ODN Protects Astrocytes against Hydrogen Peroxide-Induced Apoptosis via a PKA/MAPK-Dependent Mechanism” (PLoS ONE, 2012)",
  "key": {"[1]": {"test_system": "glutathione (GSH) in cultured astrocytes", "experiment": "Intracellular glutathione content, mBCl fluorescence", "assay_type": "cell-based, rat", "protocol": "(§1) Secondary cultures of rat cortical astrocytes were prepared as previously described [64]with minor modifications. Briefly, cerebral hemispheres from newborn Wistar rats were collected in DMEM/F12 (2∶1; v/v) culture medium supplemented with 2 mM L-glutamine, 1‰ insulin, 5 mM HEPES, 0.4% glucose and 1% of the antibiotic-antimycotic solution. The tissues were dissociated mechanically with a syringe equipped with a 1-mm gauge needle, and filtered through a 100-µm sieve (Falcon, Franklin Lakes, NJ, USA). Dissociated cells were resuspended in culture medium supplemented with 10% FBS, plated in 175-cm^2 flasks (Greiner Bio-one GmbH, Frickenhausen, Germany) and incubated at 37°C in a 5% CO2/95% O2 atmosphere. When cultures were confluent, astrocytes were isolated by shaking overnight the flasks on an orbital agitator. Adhesive cells were detached by trypsination and preplated for 5 min to discard contaminating microglial cells. Then, the non-adhering astrocytes were harvested and plated on 35-mm hydrophilic surface Petri dishes at a density of 3×10^5 cells/ml. For measurement of cell survival, caspase-3 activity and mitochondrial activity, cells were plated in hydrophilic surface 24-well plates at a density of 8×10^4 cells/ml. The cells were incubated at 37°C in a humid atmosphere (5% CO2). After 5 days (DIV5), more than 99% of the cells were labeled with antibodies against glial fibrillary acidic protein [65]. All experiments were performed on 5- to 7-day-old secondary cultures.\nReduced GSH was measured by using the thiol-reactive probe mBCl. At the end of the treatment period, the culture medium was removed and the cells were incubated with the mBCl probe (40 µM) at 37°C for 30 min and then washed twice with PBS. Fluorescence intensity was measured with excitation at 360 nm and emission at 485 nm, using a microplate reader (Bio-Tek FLx 800)."}, "caspase-3": {"test_system": "caspase-3", "parameters": "method as in PMID 21599667", "details": "subnanomolar concentrations of ODN, cultured astrocytes; cited from earlier work"}, "cultured rat astrocytes": {"test_system": "cultured rat astrocytes", "experiment": "Cell survival after H2O2, FDA fluorescence", "assay_type": "cell-based", "protocol": "as §1, with “Dissociated cells were resuspended in culture medium supplemented with 10% FBS, plated in 175-cm^2 flasks (Greiner Bio-one GmbH, Frickenhausen, Germany) and incubated at 37°C in a 5% CO2/95% O2 atmosphere.” left out, “For measurement of cell survival, caspase-3 activity and mitochondrial activity, cells were plated in hydrophilic surface 24-well plates at a density of 8×10^4 cells/ml.” left out, “After 5 days (DIV5), more than 99% of the cells were labeled with antibodies against glial fibrillary acidic protein [65].” left out\nCultured cells were incubated at 37°C with fresh serum-free culture medium in the absence or presence of H2O2 and/or ODN for 1 h. Cells were then incubated for 10 min at 37°C with 0.3 µg/ml calcein-AM (producing green fluorescence in living cells), rinsed twice with culture medium without probe and examined on an inverted microscope (Leica, Heidelberg, Germany) equipped with a double pass filter.\nFor quantification of surviving astrocytes, cells were incubated for 8 min with 15 µg/ml FDA-AM, rinsed twice with phosphate-buffered saline (PBS) and lysed with a Tris/HCl solution containing 1% sodium dodecyl sulfate (SDS). Fluorescence was measured with excitation at 485 nm and emission at 538 nm, using a microplate reader (Bio-Tek FLx 800)."}, "[2]": {"test_system": "mitochondria of cultured astrocytes", "experiment": "Mitochondrial membrane potential, JC-1 probe", "assay_type": "cell-based, rat", "details": "ODN 0.1 nM, 10 min pretreatment, then 1 h 300 µM H2O2", "protocol": "as §1, with “For measurement of cell survival, caspase-3 activity and mitochondrial activity, cells were plated in hydrophilic surface 24-well plates at a density of 8×10^4 cells/ml. The cells were incubated at 37°C in a humid atmosphere (5% CO2). After 5 days (DIV5), more than 99% of the cells were labeled with antibodies against glial fibrillary acidic protein [65]. All experiments were performed on 5- to 7-day-old secondary cultures.” left out\nCells seeded into 24-well plates were subjected to various treatments, incubated in the presence of the JC-1 probe (3 µl/ml) at 37°C for 15 min and then washed twice with PBS. Mitochondrial integrity was assessed with the JC-1 probe. […]"}, "ERK1 and ERK2": {"test_system": "ERK1 and ERK2", "experiment": "ERK phosphorylation, Western blot", "assay_type": "cell-based, rat", "protocol": "as §1\nCultured cells were incubated at 37°C for 1 h with fresh serum-free medium in the absence or presence of test substances. Total proteins were extracted with lysis buffer containing 1% Triton X-100, 50 mM Tris/HCl and 10 mM EDTA. After centrifugation (20,000 g, 4°C, 15 min), the proteins contained in the supernatant were precipitated by addition of ice-cold 10% TCA. The extract was centrifuged (15,000 g, 4°C, 15 min) and washed three times with alcohol/ether. The pellet was denatured (100°C, 5 min) in 50 mM Tris/HCl (pH 7.5) containing 20% glycerol, 0.7 M 2-mercaptoethanol, 0.004% bromophenol blue and 3% SDS, and then migrated on a 10% SDS-polyacrylamide gel electrophoresis (PAGE). After separation, proteins were electrically transferred onto nitrocellulose membrane (Amersham, Les Ulis, France). […] Signal was quantified using an image analysis system (Biocom, Les Ulis, France)."}},
  "data": [
    {"substance": "ODN: octadecaneuropeptide, endozepine derived from diazepam-binding inhibitor; endogenous ligand of central-type benzodiazepine and metabotropic receptors; synthesized by Fmoc procedure (QATVGDVNTDRPGLLDLK; Octadecaneuropeptide; UniProt P11030 34-51, looked up)", "values": [
      {"measurement": "effect on H2O2-induced depletion of GSH (mBCl fluorescence)", "setting": "[1]; ODN 0.1 nM pretreatment, 1 h 300 µM H2O2", "value": "prevented the depletion of mBCl fluorescence induced by H2O2"},
      {"measurement": "effect on intracellular GSH content (mBCl fluorescence), peptide alone", "setting": "[1]; graded ODN 1 fM to 0.1 nM, 1 h", "value": "dose-related increase in mBCl fluorescence intensity"},
      {"measurement": "effect on H2O2-induced caspase-3 activation", "setting": "caspase-3", "value": "inhibit H2O2-induced caspase-3 activation"},
      {"measurement": "time-course of protection against H2O2-induced cell injury", "setting": "cultured rat astrocytes; ODN 0.1 nM, 300 µM H2O2, FDA fluorescence", "value": "totally blocked H2O2-induced cell injury during the first 60 min"},
      {"measurement": "duration of the protective effect with fresh doses of peptide", "setting": "cultured rat astrocytes; ODN 0.1 nM, refills of 0.1 nM after 30, 60, 90, 120 and 150 min, 300 µM H2O2", "value": "≥ 150", "unit": "min"},
      {"measurement": "maximum effect (survival)", "setting": "cultured rat astrocytes; ODN 0.1 nM, 10 min pre-incubation, 1 h 300 µM H2O2, FDA fluorescence", "value": "~95", "unit": "%"},
      {"measurement": "time after onset of peptide administration at which the protective action vanished", "setting": "cultured rat astrocytes; single dose of ODN 0.1 nM, 300 µM H2O2", "value": 180, "unit": "min"},
      {"measurement": "delay of H2O2-induced cell death", "setting": "cultured rat astrocytes; time-course, ODN 0.1 nM, 300 µM H2O2", "value": "approximately 1 h"},
      {"measurement": "effect on H2O2-induced alteration of the mitochondrial membrane potential", "setting": "[2]", "value": "suppressed this deleterious effect of H2O2 on the mitochondrial membrane potential"},
      {"measurement": "ERK phosphorylation", "setting": "ERK1 and ERK2; ODN 0.1 nM, after 60 min of treatment, percentages of control", "value": 206, "unit": "%"},
      {"measurement": "time to detectable increase of ERK phosphorylation", "setting": "ERK1 and ERK2; ODN 0.1 nM, time-course", "value": "≤ 20", "unit": "min"},
      {"measurement": "effect on ERK phosphorylation", "setting": "ERK1 and ERK2; graded ODN 1 fM to 0.1 nM, 1 h, Western blot", "value": "concentration-related stimulation of ERK phosphorylation"}
    ]}
  ]
}
